According to patent US20250230193A1, “CYCLIC COMPOUND HAVING SELECTIVE KRAS INHIBITORY EFFECT ON HRAS AND NRAS” (CHUGAI SEIYAKU KABUSHIKI KAISHA, priority 2022, published 2025):
Where a SMILES comes first, the peptide text is derived from it. Bridges are numbered along the chain shown (N, C = ends). [ ]: non-standard residue; d: D form. The star is where a group is joined. hPhe(3-Cl-4-CF3) = N[C@@H](CCc1ccc(C(F)(F)F)c(Cl)c1)C(=O)O; NPrPhe(4-CF3) = CCCN[C@@H](Cc1ccc(C(F)(F)F)cc1)C(=O)O; Abu(4,4,4-F3) = N[C@@H](CC(F)(F)F)C(=O)O; NMeGly(cPent) = CN[C@H](C(=O)O)C1CCCC1; NMeD = CN[C@@H](CC(=O)O)C(=O)O; NMeL = CN[C@@H](CC(C)C)C(=O)O; Ac6c = NC1(C(=O)O)CCCCC1; Morpholide = C1CN(*)CCO1; NMeA = CN[C@@H](C)C(=O)O; Ac5c = NC1(C(=O)O)CCCC1; Aze = O=C(O)[C@@H]1CCN1; Sar = CNCC(=O)O

Key:
[1] = molecular target: GDP-bound NRAS wild-type protein (Homo sapiens, UniProt P01111); experiment: Binding to NRAS by surface plasmon resonance (SPR), Single Cycle Kinetics
[2] = molecular target: GDP-bound HRAS wild-type protein (Homo sapiens, UniProt P01112); experiment: Binding to HRAS by surface plasmon resonance (SPR), Single Cycle Kinetics
[3] = SPR, GDP-bound wild-type proteins
[4] = SPR, GDP-bound NRAS wild-type vs GDP-bound KRAS wild-type
[5] = SPR, GDP-bound HRAS wild-type vs GDP-bound KRAS wild-type
[6] = KD ratio, GDP-bound NRAS wild-type vs GDP-bound KRAS wild-type, SPR
[7] = KD ratio, GDP-bound HRAS wild-type vs GDP-bound KRAS wild-type, SPR

GDP-bound HRAS wild-type protein, sequence (P01112 whole entry): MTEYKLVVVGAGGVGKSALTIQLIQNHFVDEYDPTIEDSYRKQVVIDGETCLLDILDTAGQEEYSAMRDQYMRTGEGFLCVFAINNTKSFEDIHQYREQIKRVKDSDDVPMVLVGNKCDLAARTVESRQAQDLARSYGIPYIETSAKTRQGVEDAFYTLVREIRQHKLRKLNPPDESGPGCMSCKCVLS
GDP-bound NRAS wild-type protein, sequence (P01111 whole entry): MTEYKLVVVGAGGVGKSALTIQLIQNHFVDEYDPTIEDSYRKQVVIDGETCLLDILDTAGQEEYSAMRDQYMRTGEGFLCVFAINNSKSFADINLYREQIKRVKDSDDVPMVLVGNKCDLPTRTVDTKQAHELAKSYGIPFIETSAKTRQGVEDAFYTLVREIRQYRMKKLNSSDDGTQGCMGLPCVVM

`CCO[C@@H]1C[C@H]2C(=O)NC3(CC(C)(C)C3)C(=O)N(C)[C@@H](C(CC)CC)C(=O)N(C)[C@H](C(=O)N(C)C)CC(=O)N(C)[C@H]3CCCCC/C=C/c4ccc(cc4)C[C@@H](C(=O)N(C)CC(=O)N[C@@H](CCc4cc(F)c(C(F)(F)F)c(F)c4)C(=O)N2C1)N1CC/C=C\C[C@@H](C1=O)N(C)C(=O)CN(C)C(=O)[C@H]([C@@H](C)CC)NC3=O` [PP3048] was tested, and the “NRAS/KRAS (ratio of KD value with respect to GDP-bound NRAS wild-type protein to KD value with respect to KRAS)” value [1, 3] was “A (a compound having 10 or more and less than 20 is denoted as A)” and the “HRAS/KRAS (ratio of KD value with respect to GDP-bound HRAS wild-type protein to KD value with respect to KRAS)” value [2, 3] was “A (a compound having 10 or more and less than 20 is denoted as A)”.

In the case of `CCC[C@H]1C(=O)N[C@@H]([C@@H](C)CC)C(=O)N(C)CC(=O)N(C)[C@H]2C/C=C\CCN(C2=O)[C@@H](Cc2ccc(C(F)(F)F)cc2)C(=O)N(C)CC(=O)N[C@@H](CCc2cc(F)c(C(F)(F)F)c(F)c2)C(=O)N2C[C@H](OCC)C[C@H]2C(=O)NC2(CCC2)C(=O)N(C)[C@@H](C2CCCC2)C(=O)N(C)[C@H](C(=O)N(C)CC)CC(=O)N1C` [PP1304], the “NRAS/KRAS (ratio of KD value for GDP-bound NRAS wild-type protein to KD value for KRAS)” value ([1]; SPR, KD ratio class) was “A (a compound having 10 or more and less than 20 is denoted as A)” and the “HRAS/KRAS (ratio of KD value for GDP-bound HRAS wild-type protein to KD value for KRAS)” value ([2]; SPR, KD ratio class) was “A (a compound having 10 or more and less than 20 is denoted as A)”.

`CCCN1C(=O)[C@@H]2CCN2C(=O)[C@H](C)N(C)C(=O)[C@H]([C@@H](C)CC)NC(=O)[C@H](CC(C)C)N(C)C(=O)C[C@@H](C(=O)N2CCOCC2)N(C)C(=O)[C@H](C2CCCC2)N(C)C(=O)C2(CCCCC2)NC(=O)[C@@H]2CCCN2C(=O)[C@H](CCc2ccc(C(F)(F)F)c(Cl)c2)NC(=O)CN(C)C(=O)[C@@H]1Cc1ccc(C(F)(F)F)cc1` [PP0226] ([NMeL]I[NMeA][Aze][NPrPhe(4-CF3)][Sar][hPhe(3-Cl-4-CF3)]P[Ac6c][NMeGly(cPent)][NMeD]-Morpholide; lactam N-11) was tested, and the “NRAS/KRAS (ratio of KD for GDP-bound NRAS wild-type to KD for KRAS)” value ([1]; SPR) was “C (A compound having a KD ratio of 0.1 or more and less than 3 is denoted as C)” and the “HRAS/KRAS (ratio of KD for GDP-bound HRAS wild-type to KD for KRAS)” value ([2]; SPR) was “B (a compound having 3 or more and less than 10 is denoted as B)”.

For `C#CCN1CC(=O)N(C)[C@H]2C/C=C\CCN(C2=O)[C@@H](Cc2ccc(C)cc2)C(=O)N(C)CC(=O)N[C@@H](CCc2ccc(C(F)(F)F)c(OC)c2)C(=O)N2C[C@H](OCC)C[C@H]2C(=O)NC2(CC(C)(C)C2)C(=O)N(C)[C@@H](C2CCCC2)C(=O)N(C)[C@H](C(=O)N(C)C)CC(=O)N(C)[C@@H](CCC)C(=O)N[C@@H](CC(C)C)C1=O` [PP2514], the “NRAS/KRAS (ratio of KD value with respect to NRAS to KD value with respect to KRAS)” value [1, 4] was “A (a compound having 10 or more and less than 20 is denoted as A)” and the “HRAS/KRAS (ratio of KD value with respect to HRAS to KD value with respect to KRAS)” value [2, 5] was “B (a compound having 3 or more and less than 10 is denoted as B)”.

With `CC[C@H](C)[C@@H]1NC(=O)[C@H](CC)N(C)C(=O)C[C@@H](C(=O)N(C)C)N(C)C(=O)[C@H](C2CCCC2)N(C)C(=O)C2(CCC2)NC(=O)[C@@H]2C[C@H](C)CN2C(=O)[C@H](CCc2cc(F)c(C(F)(F)F)c(F)c2)NC(=O)CN(C)C(=O)[C@H](Cc2ccc(C(F)(F)F)cc2)N2CC/C=C\C[C@@H](C2=O)N(C)C(=O)CN(C)C1=O` [PP1134] the “NRAS/KRAS (ratio of KD value with respect to NRAS to KD value with respect to KRAS)” value [1, 6] was “A (a compound having 10 or more and less than 20 is denoted as A)” and the “HRAS/KRAS (ratio of KD value with respect to HRAS to KD value with respect to KRAS)” value [2, 7] was “B (a compound having 3 or more and less than 10 is denoted as B)”.

`CCO[C@@H]1C[C@H]2C(=O)NC3(CCC3)C(=O)N(C)[C@@H](C3CCCC3)C(=O)N(C)[C@H](C(=O)N(C)C)CC(=O)N(C)[C@@H](CC(C)C)C(=O)N[C@@H]([C@@H](C)CC)C(=O)N(C)CC(=O)N(C)[C@H]3CC(C)=CCN(C3=O)[C@@H](Cc3ccc(C(F)(F)F)cc3)C(=O)N(C)CC(=O)N[C@@H](CCc3cc(F)c(C(F)(F)F)c(F)c3)C(=O)N2C1` [PP1032] was tested, and the “NRAS/KRAS (ratio of KD value with respect to NRAS to KD value with respect to KRAS)” value [1, 6] was “C (A compound having a KD ratio of 0.1 or more and less than 3 is denoted as C)” and the “HRAS/KRAS (ratio of KD value with respect to HRAS to KD value with respect to KRAS)” value [2, 7] was “C (A compound having a KD ratio of 0.1 or more and less than 3 is denoted as C)”.

For `CCC(CC)[C@H]1C(=O)N(C)[C@H](C(=O)N(C)C)CC(=O)N(C)[C@@H](COC)C(=O)N[C@@H]([C@@H](C)CC)C(=O)N(C2CC2)CC(=O)N(C)[C@H]2C/C=C\CCN(C2=O)[C@@H](Cc2ccc(C)cc2)C(=O)N(C)CC(=O)N[C@@H](CCc2cc(F)c(C(F)(F)F)c(F)c2)C(=O)N2C[C@H](OC(C)C)C[C@H]2C(=O)NC2(CC(C)(C)C2)C(=O)N1C` [PP2572], the “NRAS/KRAS (ratio of KD value with respect to GDP-bound NRAS wild-type protein to KD value with respect to KRAS)” value ([1]; class symbols) was “A (a compound having 10 or more and less than 20 is denoted as A)” and the “HRAS/KRAS (ratio of KD value with respect to GDP-bound HRAS wild-type protein to KD value with respect to KRAS)” value ([2]; class symbols) was “A (a compound having 10 or more and less than 20 is denoted as A)”.

In the case of `CCO[C@@H]1C[C@H]2C(=O)NC3(CC(C)(C)C3)C(=O)N(C)[C@@H](C(CC)CC)C(=O)N(C)[C@H](C(=O)N3CCCCC3)CC(=O)N(C)[C@H]3CCC/C=C/c4ccc(cc4)C[C@@H](C(=O)N(C)CC(=O)N[C@@H](CCc4ccc(Cl)c(Cl)c4)C(=O)N2C1)N1CC/C=C\C[C@@H](C1=O)N(C)C(=O)CN(C)C(=O)[C@H]([C@@H](C)CC)NC3=O` [PP2953], the “NRAS/KRAS (ratio of KD value with respect to GDP-bound NRAS wild-type protein to KD value with respect to KRAS)” value ([1]; class symbols) was “AA (a compound having 20 or more is denoted as AA)” and the “HRAS/KRAS (ratio of KD value with respect to GDP-bound HRAS wild-type protein to KD value with respect to KRAS)” value ([2]; class symbols) was “A (a compound having 10 or more and less than 20 is denoted as A)”.

`CCCN1C(=O)CN(C)C(=O)CN(C)C(=O)[C@H](CC(F)(F)F)NC(=O)[C@H](CC(C)C)N(C)C(=O)C[C@@H](C(=O)N2CCOCC2)N(C)C(=O)[C@H](C2CCCC2)N(C)C(=O)C2(CCCC2)NC(=O)[C@@H]2CCCN2C(=O)[C@H](CCc2ccc(C(F)(F)F)c(Cl)c2)NC(=O)CN(C)C(=O)[C@@H]1Cc1ccc(C(F)(F)F)cc1` [PP0249] ([NMeL][Abu(4,4,4-F3)][Sar][Sar][NPrPhe(4-CF3)][Sar][hPhe(3-Cl-4-CF3)]P[Ac5c][NMeGly(cPent)][NMeD]-Morpholide; lactam N-11) was tested, and the “NRAS/KRAS (ratio of KD for GDP-bound NRAS wild-type to KD for KRAS)” value ([1]; SPR) was “B (a compound having 3 or more and less than 10 is denoted as B)” and the “HRAS/KRAS (ratio of KD for GDP-bound HRAS wild-type to KD for KRAS)” value ([2]; SPR) was “C (A compound having a KD ratio of 0.1 or more and less than 3 is denoted as C)”.

In the case of `CCO[C@@H]1C[C@H]2C(=O)NC3(CCC3)C(=O)N(C)[C@@H](C3CCCC3)C(=O)N(C)[C@H](C(=O)N(C)C)CC(=O)N(CC)[C@@H](CC(C)C)C(=O)N[C@@H]([C@@H](C)CC)C(=O)N(C)CC(=O)N(C)[C@H]3C/C=C\CCN(C3=O)[C@@H](Cc3ccc(C(F)(F)F)cc3)C(=O)N(C)CC(=O)N[C@@H](CCc3cc(F)c(C(F)(F)F)c(F)c3)C(=O)N2C1` [PP1765], the “NRAS/KRAS (ratio of KD value for NRAS to KD value for KRAS)” value [1, 6] was “A (a compound having 10 or more and less than 20 is denoted as A)” and the “HRAS/KRAS (ratio of KD value for HRAS to KD value for KRAS)” value [2, 7] was “A (a compound having 10 or more and less than 20 is denoted as A)”.

With `CCCOC[C@H]1C(=O)N[C@@H]([C@@H](C)CC)C(=O)N(C)CC(=O)N(C)[C@H]2C/C=C\CCN(C2=O)[C@@H](Cc2ccc(C)cc2)C(=O)N(C)CC(=O)N[C@@H](CCc2ccc(C(F)(F)F)c(Cl)c2)C(=O)N2C[C@@H](C)C[C@H]2C(=O)NC2(CC(C)(C)C2)C(=O)N(C)[C@@H](C2CCCC2)C(=O)N(C)[C@H](C(=O)N(C)C)CC(=O)N1C` [PP2453] the “NRAS/KRAS (ratio of KD value with respect to NRAS to KD value with respect to KRAS)” value [1, 4] was “A (a compound having 10 or more and less than 20 is denoted as A)” and the “HRAS/KRAS (ratio of KD value with respect to HRAS to KD value with respect to KRAS)” value [2, 5] was “A (a compound having 10 or more and less than 20 is denoted as A)”.
